Columns and labels:
TNFR1 = test: Human NP cell CRISPRi: TNFR1 knockdown by qRT-PCR; format: cell-based; conditions: human NP cells
Procedure: Human NP Cell CRISPRi. […] Quantitative RT-PCR was performed to identify TNFR1 knockdown in these primary human NP cells. Additionally, flow-cytometry was performed to determine transduction efficiency in human NP cells.

[1] = test system: TNFR1 signaling (NF-κB activity); test: NF-κB activity assay in HEK293T cells dosed with TNF-α; format: cell-based, human; conditions: 0.15 ng/mL TNF-α, 24 hours
Procedure: Measurement of functional effects of epigenome editing based gene downregulation. NE-κB activity assays. HEK293T cells and hADMSCs were transduced with the earlier mentioned NF-κB reporter vector and analyzed for changes in NF-κB activity in response to dosing cells with TNF-α/IL-1β (RnD systems, ProSpec). To further describe, cells expressing the NF-κB reporter were plated in white 96-well plates (HEK293T cells at 25,000 cells/well and hADMSCs at 5000 cells/well) and allowed to attach overnight. The next day cells were dosed with the appropriate amounts of inflammatory cytokines (0, […], 1, and/or 10 ng/mL of TNF-α/IL-1β) for 24 hours. At 24 hours luminescence corresponding to NF-κB activity was measured in one set of cells using the bright glo assay (Promega) and cell number was measured on another set of cells under the same treatment using the real-time glo assay (Promega). Changes in NF-κB activity were quantified as a fold change in luminescence relative to the no dose control for each cell type, with NF-κB activity normalized to cell number.

Substance | TNFR1 knockdown (TNFR1; with dCas9-KRAB) | TNFR1 knockdown (TNFR1; with dCas9 alone) | NF-κB activity vs no dose control [1]
5′-AUAAGCGUCCGACACAUGAU-3′ (expressed or natural sequence) [TNFR1 gRNA 4, 82] | 55% | no knockdown | –
5′-CAGUGUUGCAACAGCGGGAC-3′ (expressed or natural sequence) [TNFR1 gRNA 1, 79] | – | – | no significant increase in NF-κB activity

Reference: patent publication US12410428B2, “RNA-guided transcriptional regulation and methods of using the same for the treatment of back pain” (University of Utah Research Foundation, priority 2018, dated 2025)
